Measurements as given in paper PMC6452685, “Lysyl-tRNA synthetase as a drug target in malaria and cryptosporidiosis” (Proceedings of the National Academy of Sciences of the …, 2019).

Tests used:
[1] = tested on: P. berghei liver schizonts; experiment: P. berghei liver schizonts (luciferase); assay type: cell-based; settings: Plasmodium berghei
Method: Thi s i s bas ed on met hods prev i ous l y report ed (12 ). In bri ef, HepG 2-A1 6-CD81EGFP cel l s were cul tured at 3 7 °C i n 5% C O2 in DMEM me dia. For both P. berghei-Luc and HepG2 cytotoxi ci ty assays, 3x 10**3 of the HepG2-A16-CD81EGFP20 cells in 5 µl of assay medi um (DMEM wi thout Phenol Red (Li fe Techn ol ogi es, CA), 5% FBS, and 5x Pen Stre p Gl utami ne (Li fe Techn ol ogi es, CA)) at concentrati o n 6x 10**5 cel l s /ml were s eeded i n white s oli d bottom 153 6-well pl at es (cus t om G NF mol d ref# 7891 73-F, Grei ner Bi o-One), 2 0-26 h prior to sporozoites infection. […]
pri or t o i nfect i on 5 0 nl of comp ounds i n 1:3 s eri al di l ut i ons in DMSO (0. 5% fi nal DMSO concentrati on per w el l ) w ere t rans ferred w i t h an Acous ti c Trans fer Sy s t em (ATS) (Bi os ero) t o the cells. Atovaquone (5µ M) and pu romy ci n (1 0 µM) at a single concentration were used as pos i t i v e cont rol s for the Pbluc and He pG 2tox , res pecti v el y . 0. 5% DMSO was us ed as neg ati v e control for both as s ay s . […]
[…] Immediately after addition of the luminescence reagent, the luminescence was measured by the Env i s i on M ul t il abel Reader (Perk i nEl mer). […]
Thi s is a modification of the previously reported method (13). […]

[2] = In vivo pharmacokinetics in mouse
Description: 5. In vi vo pharmacokinetic and efficacy studies
5.1 In viv o ph armacokinetics (Dundee)
The l ev el of each comp ound i n mouse bl ood was determi ned by UPLC -MS/MS as previously re port e d (18). Pharmacokinetic parameters were derived from the blood c oncent ration time curve usi ng PKsol uti ons software v 2.0 (Summi t Research Servi ces, USA). […]

[3] = Hepatocyte stability, mouse; assay type: in vitro ADME
Method: SUPPLEMENTARY INFORMATION where V (ml/mg protein) is the incubation volume/mg protein added (0.5) and microsomal protein yield is taken as being 52.5 mg protein per g liver. Verapami l (0. 5 µ M ) w as us ed as a pos i t i v e cont rol to confirm ac ceptable assay performance. Ex peri ments were performed us i ng a s i ngl e ti me-cours e […]
4.5 He pat ocy t e s t abilit y
Cryopreserved hepatocytes were used to take non-CYP mediated Phase I and Phase II enzymes into […]
than those determined using li v e r mi crosomes or other subcellular liver fractions and could be mo re predi ct i v e of a met abol i c rat e det ermi ned in vivo.
Cryopreserved mouse (batch MC539) and huma n (batch HU E50H) hepatocytes were supplied by ThermoFi sher Sci enti fi c, Pai sl ey, UK and Xenotech, LLC, respectively. Cryopreserved hepatocytes were rapidly thawed in a pre-heat ed w at er bat h at 37 °C before ad di ng to 50 ml of pre-warmed CHRM medi a (ThermoFi sher Sci enti fi c, Paisley, UK) and mi xed gentl y. […] […] 5 mi l li on v i abl e cel l s /ml i n s uppl emented W ME. Onl y s us pens i ons whi ch ac hi ev ed >80% pos t-thaw viability were us ed i n ex peri ment s . […]
DMSO and 0.25 million cells/ml. […]

[4] = Toxicity in mice at higher doses; assay type: in vivo; settings: higher doses (50 mg/kg orally)

SMILES: O=C(NCC1(O)CCC(F)(F)CC1)c1cc(=O)c2cc(F)ccc2o1 [Compound 5]
- EC50 [1]: 900 nM
- compound present in mouse stools ([2]; after oral dosing): 17 % of oral dose
- AUC(0-t) ([2]; female, BALB/c, whole blood, po, orally, 10 mg/kg, read-out: Mouse PK orally AUC0–1440): 21700 to 50000 ng·h/mL
- Cmax ([2]; female, BALB/c, whole blood, po, orally, 10 mg/kg, read-out: Mouse PK orally Cmax): 5400 ng/mL
- bioavailability ([2]; female, BALB/c, whole blood, po, orally, 10 mg/kg, read-out: Mouse PK orally F% (oral bioavailability)): 100%
- Tmax ([2]; female, BALB/c, whole blood, po, orally, 10 mg/kg, read-out: Mouse PK orally Tmax): 2 h
- AUC ([2]; female, Balb/c, whole blood, iv, intravenously, 3 mg/kg, read-out: Mouse PK intravenously AUC (converted)): 14800 ng·h/mL
- half-life ([2]; female, Balb/c, whole blood, iv, intravenously, 3 mg/kg, read-out: Mouse PK intravenously T1/2 (converted)): 2.5 h
- Vd ([2]; female, Balb/c, whole blood, iv, intravenously, 3 mg/kg, read-out: Mouse PK intravenously Vdss): 1 L/kg
- Mouse PK intravenously Clb ([2]; intravenously, 3 mg/kg): 3.4 mL⋅min^−1⋅kg^−1
- Mouse PK orally F% (oral bioavailability) ([2]; orally, 10 mg/kg): completely bioavailable
- Hepatocyte stability CLint [3]: 0.5 (mouse), <0.5 (human) mL⋅min^−1⋅g^−1
- toxicity in mice [4]: showed toxicity
